In patent EP4442727A1, “EPOXY RESIN COMPOSITIONS COMPRISING A LEWIS ACID” (priority 2023, dated 2024):
Read-outs that look alike come from different tables or passages of the source.

Assays:
[1] = type: physicochemical; details: for Viscosity, Initial: Epoxy Composition 3 (Table 8) with the named Lewis Acid Additive, before storage; for 7d (increase in viscosity in %) / Viscosity, 7d / 15 d (increase in viscosity in %) / Viscosity, 15 d: Epoxy Composition 3 with the named Lewis Acid Additive; for 7d (increase in viscosity in %) / Viscosity, 7d: stored at 50°C for 7 days; for 15 d (increase in viscosity in %) / Viscosity, 15 d: stored at 50°C for 15 days
Experimental: The A1 value gave the viscosity in Pascal seconds.
The epoxy resin was put in a Speedmixer cup (Hauschild Engineering), the thixotrope and dicyandiamide were added, and the raw materials mixed at 3500 s^-1 for 5 min. The accelerator and the additive were then weighed into the resin formulation and the mixture again speedmixed at 3500 s^-1 for 15 s. Formulations were stored at 50 °C. The complex viscosity was determined after 7 d and 15 d. Table 9. Viscosity of adhesive formulations stored at 50°C for 7 and 15 days in Pa*s.

[2] = cited from earlier work

Compound	Viscosity, Initial [1]	7d (increase in viscosity in %) [1]	Viscosity, 7d [1]	15 d (increase in viscosity in %) [1]	Viscosity, 15 d [1]	solubility in water ([2]; at 17.8°C)	solubility in water ([2]; at 25°C)	solubility in water ([2]; at 25°C, printed in brackets beside the g/100g value)
CCCCCCCCCCCCCCCCCC(=O)[O-].[Al+3].[OH-].[OH-] [AMS, Aluminum monostearate]	53 Pa*s	245%	130 Pa*s	337%	179 Pa*s	–	–	–
[O]=[Zn] [ZnO, Zinc oxide]	48 Pa*s	233%	112 Pa*s	17235%	8273 Pa*s	solubility in water 0.0004% at 17.8 °C	–	–
[Cl-].[Cl-].[Zn+2] [ZnCl2, Zinc chloride]	54 Pa*s	140%	76 Pa*s	292%	158 Pa*s	–	432 g/100g	4320 g/L
